What was measured:
TRa2 = test: Glycosyl donor selectivity of TRa2; type: biochemical, Trichoderma viride; conditions: under the conditions shown in the Example section
Excerpt: Moreover, this enzyme is a glycosyltransferase capable of producing not only sugars composed of one or two glucose molecules, but also glycosides whose sugar chain length is three (G3) or more glucose molecules.

[1] = Heat stability of glycoside (% remaining, HPLC); type: physicochemical; conditions: 100 μM in 10 mM potassium phosphate buffer pH 7.0, 4° C. to 100° C., 0 to 4 hours
Protocol: After 10 mM potassium phosphate buffer (pH 7.0, 30 μl) containing 100 μM (+)-catechin or 4′-O-α-D-glucopyranosyl-(+)-catechin was treated at different temperatures ranging from 4° C. to 100° C. for 0 to 4 hours, each sample was transferred on ice and mixed with 0.1% TFA (60 μl), followed by HPLC analysis in the same manner as shown in Example 1.

[2] = Solubility in water (HPLC quantification of supernatant); type: physicochemical; conditions: added to water at 10 to 450 mg/ml, vigorous stirring, centrifugation

Structure (SMILES)	use as glycosyl donor by TRa2 (TRa2)	also measured
OC[C@H]1O[C@H](O[C@H]2[C@H](O)[C@@H](O)C(O)O[C@@H]2CO)[C@H](O)[C@@H](O)[C@@H]1O (mixture of isomers) [maltose]	does not target	
OC[C@H]1O[C@H](Oc2ccc([C@H]3Oc4cc(O)cc(O)c4C[C@@H]3O)cc2O)[C@H](O)[C@@H](O)[C@@H]1O [4′-O-α-D-glucopyranosyl-(+)-catechin]		heat stability (% remaining) compared with catechin [1]: more stable against heat than catechin
OC[C@H]1O[C@H](Oc2cc(O)cc3c2C[C@H](O)[C@@H](c2ccc(O)c(O)c2)O3)[C@H](O)[C@@H](O)[C@@H]1O [5-O-α-D-glucopyranosyl-(+)-catechin]		solubility in water relative to (+)-catechin [2]: at least 40 fold
Oc1cc(O)c2c(c1)O[C@H](c1ccc(O)c(O)c1)[C@@H](O)C2 [(+)-catechin]		solubility in water [2]: substantially insoluble in water
O=C[C@H](O)[C@@H](O)[C@H](O[C@@H]1O[C@H](CO)[C@@H](O)[C@H](O)[C@H]1O)[C@H](O)CO [cellobiose]	does not target	
OC[C@H]1O[C@@H]2O[C@H]3[C@H](O)[C@@H](O)[C@@H](O[C@H]4[C@H](O)[C@@H](O)[C@@H](O[C@H]5[C@H](O)[C@@H](O)[C@@H](O[C@H]6[C@H](O)[C@@H](O)[C@@H](O[C@H]7[C@H](O)[C@@H](O)[C@@H](O[C@H]1[C@H](O)[C@H]2O)O[C@@H]7CO)O[C@@H]6CO)O[C@@H]5CO)O[C@@H]4CO)O[C@@H]3CO [α-cyclodextrin]	does not target	
OC[C@H]1O[C@@H]2O[C@H]3[C@H](O)[C@@H](O)[C@@H](O[C@H]4[C@H](O)[C@@H](O)[C@@H](O[C@H]5[C@H](O)[C@@H](O)[C@@H](O[C@H]6[C@H](O)[C@@H](O)[C@@H](O[C@H]7[C@H](O)[C@@H](O)[C@@H](O[C@H]8[C@H](O)[C@@H](O)[C@@H](O[C@H]1[C@H](O)[C@H]2O)O[C@@H]8CO)O[C@@H]7CO)O[C@@H]6CO)O[C@@H]5CO)O[C@@H]4CO)O[C@@H]3CO [β-cyclodextrin]	does not target	

— patent US8383384B2, “Polypeptide having glycosylation activity on a flavonoid” (Suntory Holdings Limited, priority 2007, dated 2013)
